Reference: patent US20200069648A1, “HALOALLYLAMINE PYRAZOLE DERIVATIVE INHIBITORS OF LYSYL OXIDASES AND USES THEREOF” (Pharmaxis Ltd., priority 2017, published 2020)
Structures can show the parent of a compound that is named as a salt.

What was measured:
[1] = system: metastatic oral cancer cell line expressing DsRed; assay: Oral metastatic cancer mouse model; type: in vivo; conditions: mice, 0.1-100 mg/Kg, up to five weeks; compared with vehicle-treated group
Protocol: An analysis of the use of LOXL2 inhibitors to treat cancer diseases is performed through the use of an oral metastatic cancer mouse model.
Mice are injected with a metastatic oral cancer cell line expressing DsRed for tracking. Mice are monitored weekly by in vivo imaging (IVIS) based on DsRed expression and by caliper measurements of mouse tongues over a period of up to five weeks. Compound 15 is given 0.1-100 mg/Kg throughout the period of the experimental procedure or only two times a week throughout the entire study.

[2] = target: T1, human recombinant SSAO/VAP-1 (Homo sapiens, UniProt Q16853); assay: Human recombinant SSAO/VAP-1 amine oxidase inhibition; type: biochemical; conditions: 30 min preincubation at 37° C., 600 μM benzylamine
T1 construct: a cloned cDNA template corresponding to residues 34-763 of human SSAO/VAP-1; TEV cleavage site (N); made in house
T1 sequence (Q16853 34-763): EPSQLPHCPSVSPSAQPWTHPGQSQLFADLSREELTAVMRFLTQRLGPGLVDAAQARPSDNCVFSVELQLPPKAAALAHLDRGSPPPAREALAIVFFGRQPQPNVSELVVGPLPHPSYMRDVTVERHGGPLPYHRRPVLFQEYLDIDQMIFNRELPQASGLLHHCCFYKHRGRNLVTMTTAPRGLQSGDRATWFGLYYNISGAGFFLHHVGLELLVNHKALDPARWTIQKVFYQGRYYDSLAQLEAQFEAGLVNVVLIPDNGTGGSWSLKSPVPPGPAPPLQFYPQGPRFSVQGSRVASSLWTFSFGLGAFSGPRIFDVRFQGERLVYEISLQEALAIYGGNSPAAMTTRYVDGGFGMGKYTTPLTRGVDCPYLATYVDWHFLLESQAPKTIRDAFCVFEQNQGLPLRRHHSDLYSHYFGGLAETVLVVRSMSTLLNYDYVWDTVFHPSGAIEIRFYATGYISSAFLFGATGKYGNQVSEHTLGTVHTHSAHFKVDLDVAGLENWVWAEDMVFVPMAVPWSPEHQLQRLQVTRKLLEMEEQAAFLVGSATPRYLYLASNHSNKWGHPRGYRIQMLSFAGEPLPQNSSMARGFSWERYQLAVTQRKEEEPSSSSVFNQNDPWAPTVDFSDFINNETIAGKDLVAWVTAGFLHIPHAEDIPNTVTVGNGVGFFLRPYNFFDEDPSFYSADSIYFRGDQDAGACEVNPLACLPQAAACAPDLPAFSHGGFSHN
Protocol: Method to Determine the Ability of Compounds of Formula I to Inhibit Human Recombinant SSAO/VAP-1
Human recombinant SSAO/VAP-1 amine oxidase activity was determined using the coupled colorimetric method as described for monoamine oxidase, copper-containing amine oxidases and related enzymes (Holt A. and Palcic M., A peroxidase-coupled continuous absorbance plate-reader assay for flavin monoamine oxidases, copper-containing amine oxidases and related enzymes. Nat Protoc 2006; 1: 2498-2505). Briefly, a cloned cDNA template corresponding to residues 34-763 of human SSAO/VAP-1, and incorporating a mouse Ig kappa (κ) signal sequence, N-terminal flag epitope tag and tobacco etch virus (TEV) cleavage site, was assembled in a mammalian expression vector (pLO-CMV) by Geneart AG. This vector containing human SSAO/VAP-1 residues was transfected into CHO-K1 glycosylation mutant cell line, Lec 8. A clone stably expressing human SSAO/VAP-1 was isolated and cultured in large scale. Active human SSAO/VAP-I was purified and recovered using immunoaffinity chromatography. This was used as the source for SSAO/VAP-1 activity. A high-throughput colorimetric assay was developed using either 96 or 384 well format. Briefly, in a standard 96 well plate assay 50 μL of purified human SSAO/VAP-1 (0.25 μg/mL) in 0.1 M sodium phosphate buffer (pH 7.4) was added into each well. Test compounds were dissolved in DMSO and tested in a Concentration Response Curve (CRC) with 4-11 data points, typically in the micromolar or nanomolar range after incubation with human SSAO/VAP-1 for 30 min at 37° C. After 30 min incubation, 50 μL of the reaction mixture containing 600 μM benzylamine (Sigma Aldrich), 120 μM Amplex Red (Sigma Aldrich) and 1.5 U/mL horseradish peroxidase (Sigma Aldrich) prepared in 0.1 M sodium phosphate buffer (pH 7.4) were added to the corresponding well. The fluorescence unit (RFU) was read every 2.5 min for 30 min at 37° C. excitation 565 nm and emission 590 (Optima; BMG labtech). The slope of the kinetics for each well was calculated using MARS data analysis software (BMG labtech) and this value was used to deduce the IC50 value (Dotmatics).

Recombinant human MAO-B = target: T2, Recombinant human MAO-B (Homo sapiens, UniProt P27338); assay: Human recombinant MAO-B inhibition; type: biochemical; conditions: benzylamine 100 μM
T2 construct: purchased Sigma Aldrich
T2 sequence (P27338 1-520): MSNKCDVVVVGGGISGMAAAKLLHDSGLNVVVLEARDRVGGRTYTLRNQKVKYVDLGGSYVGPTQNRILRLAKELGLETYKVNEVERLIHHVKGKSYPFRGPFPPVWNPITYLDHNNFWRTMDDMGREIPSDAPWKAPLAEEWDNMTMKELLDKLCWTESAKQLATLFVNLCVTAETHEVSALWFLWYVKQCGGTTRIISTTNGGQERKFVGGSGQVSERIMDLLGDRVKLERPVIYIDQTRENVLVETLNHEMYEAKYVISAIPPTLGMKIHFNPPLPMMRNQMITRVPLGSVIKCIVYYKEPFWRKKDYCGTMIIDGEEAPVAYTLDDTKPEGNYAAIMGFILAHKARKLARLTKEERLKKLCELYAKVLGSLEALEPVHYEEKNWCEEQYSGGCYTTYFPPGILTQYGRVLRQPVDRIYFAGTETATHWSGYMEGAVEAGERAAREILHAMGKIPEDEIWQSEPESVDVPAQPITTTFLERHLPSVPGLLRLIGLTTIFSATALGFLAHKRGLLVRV
Outline: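 Recombinant human MAO-B (0.06 mg/mL) served as enzyme, with 100 μM benzylamine as substrate. Other conditions followed the human SSAO/VAP-1 assay.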

SMILES	spread of metastasis [1]	tongue cancer volume (tongue volume) [1]	IC50 [2] [µM]	IC50 (Recombinant human MAO-B) [µM]
Cc1nn(C/C(F)=C/CN)c(C)c1Cc1ccc(S(=O)(=O)N(C)C)c(Cl)c1 [Compound 15, (Z)-4-((1-(4-amino-2-fluorobut-2-en-1-yl)-3,5-dimethyl-1H-pyrazol-4-yl)methyl)-2-chloro-N,N-dimethylbenzenesulfonamide hydrochloride]	significant reduction	significant reduction	< 10	> 30
CNS(=O)(=O)c1cc(F)c(Cn2nc(C)c(C/C(F)=C/CN)c2C)cc1F [Compound 26, (Z)-4-((4-(4-amino-2-fluorobut-2-en-1-yl)-3,5-dimethyl-1H-pyrazol-1-yl)methyl)-2,5-difluoro-N-methylbenzenesulfonamide hydrochloride]	–	–	< 10	> 30
CCOC(=O)c1c(Cc2ccc(S(=O)(=O)N(C)C)cc2)c(C)nn1C/C(F)=C/CN [Compound 27, (Z)-ethyl 1-(4-amino-2-fluorobut-2-enyl)-4-(4-(N,N-dimethylsulfamoyl)benzyl)-3-methyl-1H-pyrazole-5-carboxylate hydrochloride]	–	–	> 30	> 30
CCOC(=O)c1nn(C/C(F)=C/CN)c(C)c1Cc1ccc(S(=O)(=O)N(C)C)cc1 [Compound 28, (Z)-ethyl 1-(4-amino-2-fluorobut-2-enyl)-4-(4-(N,N-dimethylsulfamoyl)benzyl)-5-methyl-1H-pyrazole-3-carboxylate hydrochloride]	–	–	> 30	> 30
Cc1nn(C/C(F)=C/CN)c(C(=O)N(C)C)c1Cc1ccc(S(=O)(=O)N(C)C)cc1 [Compound 29, (Z)-1-(4-amino-2-fluorobut-2-enyl)-4-(4-(N,N-dimethylsulfamoyl)benzyl)-N,N,3-trimethyl-1H-pyrazole-5-carboxamide hydrochloride]	–	–	> 30	> 30
Cc1nn(C/C(F)=C/CN)c(C(=O)O)c1Cc1ccc(S(=O)(=O)N(C)C)cc1 [Compound 30, (Z)-1-(4-amino-2-fluorobut-2-enyl)-4-(4-(N,N-dimethylsulfamoyl)benzyl)-3-methyl-1H-pyrazole-5-carboxylic acid hydrochloride]	–	–	> 30	> 30
Cc1c(Cc2ccc(S(=O)(=O)N(C)C)cc2)c(C(=O)O)nn1C/C(F)=C/CN [Compound 31, (Z)-1-(4-amino-2-fluorobut-2-enyl)-4-(4-(N,N-dimethylsulfamoyl)benzyl)-5-methyl-1H-pyrazole-3-carboxylic acid hydrochloride]	–	–	> 30	> 30
Cc1c(Cc2ccc(S(=O)(=O)N(C)C)cc2)c(C(=O)N(C)C)nn1C/C(F)=C/CN [Compound 32, (Z)-1-(4-amino-2-fluorobut-2-enyl)-4-(4-(N,N-dimethylsulfamoyl)benzyl)-N,N,5-trimethyl-1H-pyrazole-3-carboxamide hydrochloride]	–	–	> 30	> 30
